For assay [1], the system named is acetylcholine receptor (AChR). The format is binding, Electrophorus electricus.
In a further assay the test system is opiate receptor (OpR). The format is binding, rat.
In assay [2] the test system is acetylcholine receptor (AChR). The format is binding, Electrophorus electricus. The source holds these as a separate data set.

Where “and” joins values, the source holds several entries; their conditions need not be identical. Equal values may be shown once.

For the molecule `CCCCCCCCCC[N+](C)(C)CCCS(=O)(=O)[O-]` [Zwittergent ™ 3-10], the “% Activity Increase (AChR membrane activity)” value in assay [1] amounted to 13%.

For the molecule `CCCCCCCC[N+](C)(C)CCCS(=O)(=O)[O-]` [Zwittergent ™ 3-08], in assay [1], the “% Activity Increase (AChR membrane activity)” value worked out at 55%.

Turning to `CN1CC[C@]23CCCC[C@H]2[C@H]1Cc1ccc(O)cc13` [Levorphanol], in the assay with opiate receptor (OpR), the “Δ% (difference between resistance changes of test and control chips)” value turned out to be 10%; the “ΔK.OMEGA. (change in resistance across the biosensor circuit)” value is reported as -160.

Take Triton ™ X-100: the “increase in retention of binding activity of AChR” value in assay [1] is “more than 90%”.

Turning to `OC[C@H]1OC(O)[C@H](O)[C@@H](O)[C@@H]1O` (stereo partly shown) [Glucose], in assay [2], the “% Change with respect to control sensor” value is 3% and 0% and 6% and 5%; the “change in resistance between control and AChR sensors (in words)” value is reported as “no change”.

Source of the values: US5192507A (priority 1991, dated 1993).
